According to US20230140941A1, “NON-ATP/CATALYTIC SITE P38 MITOGEN ACTIVATED PROTEIN KINASE INHIBITORS” (UNIVERSITY OF MARYLAND, BALTIMORE, priority 2020, published 2023):

How the values were obtained:
[1] = molecular target: T1, p38β (Homo sapiens, UniProt Q15759); assay: Differential scanning fluorimetry (DSF), p38β; format: binding
T1 construct: HA (N); made in house; host or cells: E. coli BL21

[2] = test system: HMVECL monolayers; assay: Endothelial permeability assay (10 kDa dextran flux); format: cell-based, human; details: TNFα and 39.5° C. for 6 h
Method: Endothelial permeability assay: Permeability of HMVECL monolayers was assessed by measuring transendothelial flux of 10 kDa dextran conjugated to Cascade blue fluorescent dye for 30 min at 37° C. in Matrigel-coated 3 μm pore size Transwell plates.

[3] = test system: IL-8-directed neutrophil TEM through HMVECLs; assay: Neutrophil transendothelial migration (TEM) assay; format: cell-based, human; details: HMVECLs 39.5° C. 6 h
Method: Neutrophil transendothelial migration (TEM) assay: Neutrophils were isolated from heparinized venous blood that was collected from healthy volunteers using a protocol approved by the University of Maryland Institutional Review Board and TEM of calcein-labeled neutrophils through HMVECLs was measured.

[4] = test system: p38-dependent phosphorylation of MK2; assay: Inhibition of substrate phosphorylation in HeLa cells, MK2; format: cell-based, human; details: 10 μM SB203580 or 50 μM UM101 30 min, then anisomycin
From the text: (§1) Cell extracts prepared in RIPA buffer containing protease and phosphatase inhibitors were resolved by SDS-PAGE, transferred to PVDF membrane, blocked with 5% nonfat dry milk, probed with primary antibodies against phosphorylated MK2 and Stat-1, and total p38α as a loading control. Bands were detected using secondary antibodies conjugated to infrared fluorophores and infrared fluorescence imaging (Odyssey; LICOR).

[5] = test system: p38-dependent phosphorylation of Stat-1; assay: Inhibition of substrate phosphorylation in HeLa cells, Stat-1; format: cell-based, human; details: 10 μM SB203580 or 50 μM UM101 30 min, then anisomycin
From the text: as §1

[6] = test system: p38α vs. p38β; details: cited from earlier work
[7] = test system: HMVECLs; assay: TNFα-induced gene expression in HMVECLs (RNASeq); details: 10 μM SB203580
[8] = test system: LPS/hyperthermia-induced ALI; assay: Mouse LPS/hyperthermia-induced acute lung injury model, pretreatment; details: for mice died within 24 h: 1000 μg i.p. 30 min prior to 50 μg LPS i.t. and hyperthermia
[9] = molecular target: recombinant ERK2 (Homo sapiens, UniProt P28482); assay: Differential scanning fluorimetry (DSF), ERK2; format: binding; details: for ERK2 ΔTm (° C.) @100 μM: change in melting temperature relative to DMSO control in DSF assay; for stabilization of ERK2 in DSF: 10-100 μM
Sequence of recombinant ERK2 (P28482 whole entry, species assumed): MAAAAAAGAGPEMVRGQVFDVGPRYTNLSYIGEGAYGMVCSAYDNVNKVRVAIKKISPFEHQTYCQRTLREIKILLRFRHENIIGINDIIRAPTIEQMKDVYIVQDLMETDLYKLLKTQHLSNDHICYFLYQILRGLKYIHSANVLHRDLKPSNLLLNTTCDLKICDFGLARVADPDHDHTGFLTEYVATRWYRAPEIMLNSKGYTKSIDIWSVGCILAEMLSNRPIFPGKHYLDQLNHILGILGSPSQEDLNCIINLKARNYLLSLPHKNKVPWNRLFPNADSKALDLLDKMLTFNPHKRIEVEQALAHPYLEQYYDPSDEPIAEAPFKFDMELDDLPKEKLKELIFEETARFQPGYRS

[10] = molecular target: T2, p38α mutant (R49K/HL 107-8TF/K165R) (Homo sapiens, UniProt Q16539, H107T/K165R/L108F/R49K); assay: DSF, p38α mutant with 4 mutations in CADD-targeted pocket; format: binding; details: four of ten target pocket amino acids substituted
T2 construct: made in house; host or cells: E. coli BL21
T2 sequence (Q16539 whole entry R49K/H107T/L108F/K165R): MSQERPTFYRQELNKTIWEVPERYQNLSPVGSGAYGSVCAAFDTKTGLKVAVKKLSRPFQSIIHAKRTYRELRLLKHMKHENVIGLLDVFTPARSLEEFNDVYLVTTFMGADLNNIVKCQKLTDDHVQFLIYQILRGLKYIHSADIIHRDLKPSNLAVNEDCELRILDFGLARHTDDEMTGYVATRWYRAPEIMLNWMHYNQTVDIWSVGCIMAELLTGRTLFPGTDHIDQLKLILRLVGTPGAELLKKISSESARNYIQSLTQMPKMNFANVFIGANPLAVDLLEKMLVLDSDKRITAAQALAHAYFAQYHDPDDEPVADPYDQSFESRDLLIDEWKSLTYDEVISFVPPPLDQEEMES

[11] = molecular target: T3, p38α (Homo sapiens, UniProt Q16539); assay: STD-NMR, p38α; format: binding; details: 200 μM UM101, 5 μM protein
T3 construct: made in house; host or cells: E. coli BL21
T3 sequence (Q16539 whole entry): as the sequence (Q16539 whole entry R49K/H107T/L108F/K165R) above, with K49R, T107H, F108L, R165K counted along it
Method: (§2) Spectra were recorded on an Agilent DD2 500-MHz spectrometer equipped with a 5-mm inverse HFCN probe head at 300 K. During each transient, the protein was saturated with a series of 58 […]-shaped pulses (50 ms, 1 ms delay between pulses) using the vendor-supplied STD-ES pulse sequence, for a total saturation time of 3 seconds. The on-resonance irradiation of protein was done at 0.5 ppm and off-resonance irradiation at 30 ppm. The vendor-supplied WATERGATE pulse sequence was used to suppress the water signal in the STD spectrum. The on-resonance and off-resonance pulse sequences were subtracted internally. A total of 16,384 transients were collected for each STD experiment with a 1 second delay between acquisitions, 6000 Hz spectral width, and 1.3 second acquisition time.

[12] = molecular target: T1, p38β; assay: STD-NMR, p38β; format: binding; details: 200 μM UM101, 5 μM protein
Method: as §2

[13] = molecular target: T4, mutated p38α (Homo sapiens, UniProt Q16539, H107T/K165R/L108F/R49K); assay: STD-NMR, mutated p38α; format: binding; details: 200 μM UM101, 5 μM protein
T4 construct: made in house; host or cells: E. coli BL21
T4 sequence (Q16539 whole entry R49K/H107T/L108F/K165R): as the sequence (Q16539 whole entry R49K/H107T/L108F/K165R) above
Method: as §2

[14] = test system: HMVECLs; assay: Cytotoxicity, MTS assay; format: cell-based, human; details: 100 μM for 48 h
[15] = test system: HMVECLs; assay: Cytotoxicity, LDH release; format: cell-based, human; details: 100 μM for 48 h
[16] = test system: LPS-induced lung inflammation; assay: Mouse acute lung injury, pretreatment i.p. 1 mg (FIG. 9); format: in vivo; details: pretreated i.p. 1 mg, then 100 mg LPS i.t. at 39° C.
Method: Mice were pretreated i.p. with 1 mg of test compounds and then treated with […] LPS i.t. at 39° C. to induce inflammation. Lung injury was assessed by measuring total protein in the lung lavage fluid.
(§3) First, the compounds can block thrombin-induced cell permeability in human vascular endothelial cells (FIG. 8). […] Mice were pretreated i.p. with 1 mg of test compounds and then treated with […] LPS i.t. at 39° C. to induce inflammation. Lung injury was assessed by measuring total protein in the lung lavage fluid. […] All mice received 50 μg LPS i.t. and were kept 24 h at 39° C.; all treatments 1 mg in 0.5 ml DMSO given 6 h post-LPS; mean±SM, n=5, * p=0.03 vs DMSO #1; † p=0.16 vs DMSO #2. Lung injury was assessed by measuring total protein in the lung lavage fluid.

[17] = molecular target: unphosphorylated recombinant human p38α (Homo sapiens, UniProt Q16539); assay: Differential scanning fluorimetry (DSF), p38α; details: for p38α ΔTm (° C.) @100 μM: change in melting temperature relative to DMSO control in DSF assay; for increase in melting temperature of p38α: added at 100 μM
Sequence of unphosphorylated recombinant human p38α (Q16539 whole entry): as the sequence (Q16539 whole entry R49K/H107T/L108F/K165R) above, with K49R, T107H, F108L, R165K counted along it

[18] = test system: patients with hypercholesterolemia; details: cited from earlier work
[19] = test system: LPS-induced lung injury; assay: Mouse acute lung injury, treatment 6 h post-LPS (FIG. 10); format: in vivo; details: 50 μg LPS i.t., 24 h at 39° C., 1 mg in 0.5 ml DMSO 6 h post-LPS
Method: All mice received 50 μg LPS i.t. and were kept 24 h at 39° C.; all treatments 1 mg in 0.5 ml DMSO given 6 h post-LPS; mean±SM, n=5, * p=0.03 vs DMSO #1; † p=0.16 vs DMSO #2. Lung injury was assessed by measuring total protein in the lung lavage fluid.
as §3

[20] = test system: patients with Crohn's disease; details: cited from earlier work
[21] = test system: rheumatoid arthritis; details: two trials; cited from earlier work
[22] = test system: patients at-risk for ARDS; details: cited from earlier work

T1 sequence (Q15759 whole entry): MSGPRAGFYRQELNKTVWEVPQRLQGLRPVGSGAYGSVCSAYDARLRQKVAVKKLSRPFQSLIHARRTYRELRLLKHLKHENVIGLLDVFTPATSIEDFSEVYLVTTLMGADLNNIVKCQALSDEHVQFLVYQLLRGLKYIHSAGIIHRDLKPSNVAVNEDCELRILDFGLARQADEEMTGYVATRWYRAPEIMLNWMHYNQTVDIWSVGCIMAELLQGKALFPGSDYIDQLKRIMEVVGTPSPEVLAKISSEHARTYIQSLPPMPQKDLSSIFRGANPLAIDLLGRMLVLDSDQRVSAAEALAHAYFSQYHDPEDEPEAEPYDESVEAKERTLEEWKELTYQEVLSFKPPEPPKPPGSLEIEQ

C[S+]([O-])c1ccc(-c2nc(-c3ccncc3)c(-c3ccc(F)cc3)[nH]2)cc1 (centres unmarked) [SB203580, reference compound]
stabilization of p38β in DSF [1]: stabilized both p38α and p38β
reduction of TNFα/hyperthermia-induced permeability increase for 10 kDa dextran ([2]; 10 μM): 50%
reduction of hyperthermia-augmented increase in neutrophil TEM ([3]; 10 μM): 84%
anisomycin-stimulated phosphorylation of MK2 (immunoblot) [4]: reduced
anisomycin-stimulated phosphorylation of Stat-1 (immunoblot) [5]: reduced
higher binding affinity for p38α than p38β [6]: ~10 fold
number of TNFα-induced genes with expression inhibited [7]: 61 genes
number of genes with expression increased [7]: 38 genes
reduction of lavage neutrophil content vs. DMSO-treated controls ([8]; 1000 μg i.p.): 46.8%
mice died within 24 h [8]: one of six

O=C(Nc1ccc(CN2CCS(=O)(=O)CC2)cc1)c1ccc(Cl)cc1 [UM101, 4-chloro-N-{4-[(1,1-dioxo-1lambda˜6˜-,4thiazinan-4-yl)methyl]phenyl}benzaniide]
ERK2 ΔTm (° C.) @100 μM [9]: 0.0175 °C
stabilization of ERK2 in DSF [9]: not ERK2
stabilization of p38β in DSF [1]: only stabilized p38α
binding to p38α mutant in DSF [10]: no UM101-binding
interaction with p38α in STD-NMR [11]: protons in both aromatic rings of UM101 interact with p38α
interaction with p38β in STD-NMR [12]: much weaker
interaction with mutated p38α in STD-NMR [13]: much weaker
reduction of TNFα/hyperthermia-induced permeability increase for 10 kDa dextran ([2]; 10 μM): 74%
reduction of TNFα/hyperthermia-induced permeability increase for 10 kDa dextran ([2]; 25 μM): 89%
reduction of TNFα/hyperthermia-induced permeability increase for 10 kDa dextran ([2]; 100 μM): > 100%
reduction of hyperthermia-augmented increase in neutrophil TEM ([3]; 10 μM): 95%
reduction of hyperthermia-augmented increase in neutrophil TEM ([3]; 25 μM): less than baseline levels
reduction of hyperthermia-augmented increase in neutrophil TEM ([3]; 50 μM): less than baseline levels
toxicity in MTS assay [14]: Neither compound was toxic
toxicity in LDH release assay [15]: Neither compound was toxic
anisomycin-stimulated phosphorylation of MK2 (immunoblot) [4]: reduced
anisomycin-stimulated phosphorylation of Stat-1 (immunoblot) [5]: reduced
protein leak into bronchoalveolar lavage fluid (total protein) [16]: reduced protein leak
stabilization of p38α in DSF [17]: only stabilized p38α
p38α ΔTm (° C.) @100 μM [17]: 0.667 °C
increase in melting temperature of p38α [17]: ~0.7 °C
reduction of lavage neutrophil content vs. DMSO-treated controls ([8]; 100 μg i.p.): 44.4%
reduction of lavage neutrophil content vs. DMSO-treated controls ([8]; 300 μg i.p.): 49.5%
reduction of lavage neutrophil content vs. DMSO-treated controls ([8]; 500 μg i.p.): 55.3%
reduction of lavage neutrophil content vs. DMSO-treated controls ([8]; 1000 μg i.p.): 54%
mice survived (24 h) ([8]; 100, 300, 500 or 1000 μg i.p. 30 min prior to 50 μg LPS i.t. and hyperthermia): All sixteen

Cc1c(F)cc(C(=O)NC2CC2)cc1-c1ccc(C(=O)NCC(C)(C)C)cn1 [losmapimod]
serum CRP [18]: reduced serum CRP
vascular relaxation [18]: improved vascular relaxation

CN(C)c1cccc2c(S(=O)(=O)Nc3ccc(CN4CCOCC4)cc3)cccc12 [SF-7-044]
protein leak into bronchoalveolar lavage fluid (total protein) [19]: reduced protein leak

O=C(Nc1ccc(CN2CCOCC2)cc1)c1ccc(Cl)cc1 [SF-7-009]
protein leak into bronchoalveolar lavage fluid (total protein) [16]: reduced protein leak
protein leak into bronchoalveolar lavage fluid (total protein) [19]: reduced protein leak

Cc1ccc(-n2nc(C(C)(C)C)cc2NC(=O)Nc2ccc(OCCN3CCOCC3)c3ccccc23)cc1 [BIRB 796]
clinical effect [20]: no clinical effect
serum CRP levels [20]: transiently reduced

CN(C)c1cccc2c(S(=O)(=O)Nc3ccc(CN4CCS(=O)(=O)CC4)cc3)cccc12 [SF-6-222]
protein leak into bronchoalveolar lavage fluid (total protein) [16]: reduced protein leak
protein leak into bronchoalveolar lavage fluid (total protein) [19]: reduced protein leak

NC(=O)c1ccc(N(C(N)=O)c2c(F)cccc2F)nc1-c1ccc(F)cc1F [VX-702]
proportion of treated subjects with ACR20 symptom score vs. placebo [21]: small increases

O=C1c2cc(S(=O)(=O)NCCO)ccc2-c2ccc(S(=O)(=O)NCCO)cc21 [UM60, N2,N7-di(2-hydroxyethyl)-9-oxo-9H-2,7-fluorenedisulfonamiide]
ERK2 ΔTm (° C.) @100 μM [9]: 0.195 °C
stabilization of ERK2 in DSF [9]: not ERK2
reduction of TNFα/hyperthermia-induced permeability increase for 10 kDa dextran ([2]; 10 μM): no effect
reduction of TNFα/hyperthermia-induced permeability increase for 10 kDa dextran ([2]; 25 μM): no effect
reduction of TNFα/hyperthermia-induced permeability increase for 10 kDa dextran ([2]; 100 μM): 71%
reduction of hyperthermia-augmented increase in neutrophil TEM ([3]; 10 μM): 18%
reduction of hyperthermia-augmented increase in neutrophil TEM ([3]; 25 μM): 89%
reduction of hyperthermia-augmented increase in neutrophil TEM ([3]; 50 μM): less than baseline levels
toxicity in MTS assay [14]: Neither compound was toxic
toxicity in LDH release assay [15]: Neither compound was toxic
stabilization of p38α in DSF [17]: stabilized p38α
p38α ΔTm (° C.) @100 μM [17]: 0.735 °C
increase in melting temperature of p38α [17]: ~0.7 °C
mice died within 24 h [8]: Four of six

Cc1cc(F)ccc1-c1nc(NC(CO)CO)nc2c1ccc(=O)n2-c1c(F)cccc1F [dilmapimod]
safety [22]: safe at the doses administered
serum C-reactive protein (CRP) levels [22]: modestly reduced
